Experimental data taken from US20240239788A1, “SMALL MOLECULE INHIBITORS OF KRAS G12D MUTANT” (Merck Sharp & Dohme LLC, priority 2021, published 2024).
Where two headings read alike, the source gives them in different places. Blank lines part the entries; values can stand above or below the compound they belong to.

Experiments:
[1] = target: KRAS protein containing G12D mutation (Homo sapiens (Human), UniProt P01116, G12D); assay: SOS-catalyzed nucleotide exchange assay (GNE), TR-FRET; assay type: biochemical; conditions: biotinylated KRAS G12D, SOS and GTP, 60-minute incubation
Description: Compounds are added to this complex and then after a 60-minute incubation time the mixture is treated with SOS and unlabeled GTP. Small molecule inhibitors stabilize the Bodipy-GDP complex whereas the untreated protein rapidly exchanges Bodipy-GDP for unlabeled GTP resulting in reduced TR-FRET signal.
This solution is referred to as biotinylated KRAS G12D stock solution.

[2] = test system: AsPC-1 cells containing homozygous KRAS-G12D activating mutation; assay: Cellular phospho-ERK assay (Examples 1a-106); assay type: cell-based; conditions: read-out: IC50 (nM) pERK (Cell)
Description: 5% CO? overnight. […] Assay plates were read on a EnVision Multimode Plate Reader (PerkinElmer) and the ratio of p-Erk vs total Erk in each well was used as the final readout.

[3] = target: KRAS G12D / Ras binding domain of C-RAF (Homo sapiens (Human), UniProt P01116, G12D); assay: RAS:RAF-RBD binding assay (cRaf), TR-FRET; conditions: biotinylated KRAS G12D, GST-C-RAF RBD
[4] = AsPC-1 cells, 2 hours, ratio of p-Erk vs total Erk
[5] = Homo sapiens, ASPC1, 2 h, AsPC-1 cells, 2 hours, ratio of p-Erk vs total Erk

Chain of KRAS protein containing G12D mutation (P01116 other isoform, or with tags, fused parts or gaps G12D (already in the parent)): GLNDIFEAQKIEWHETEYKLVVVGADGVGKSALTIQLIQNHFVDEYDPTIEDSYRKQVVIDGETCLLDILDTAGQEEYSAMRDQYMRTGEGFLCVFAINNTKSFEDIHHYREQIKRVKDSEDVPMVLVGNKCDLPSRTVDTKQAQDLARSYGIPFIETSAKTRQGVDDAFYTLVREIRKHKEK
Chain of KRAS G12D / Ras binding domain of C-RAF (P01116 other isoform, or with tags, fused parts or gaps G12D (already in the parent)): as above

IC50 [1]: 24.1 nM
IC50 [2, 4]: 2080 nM
IC50 ([3]; read-out: IC50 (nM) (cRaf)): 4240 nM
Compound: CN(C)C[C@]1(COc2nc(N3CC4CCC(C3)N4)c3cc(Cl)c(-c4cc(O)cc5ccccc45)c(F)c3n2)CC1(F)F (atropisomer, axis not shown) [Example 11a, 4-(4-(3.8-diazabicyclo[3.2.1]octan-3-yl)-6-chloro-2-(((S)-1-((dimethylamino)methyl)-2,2-difluorocyclopropyl)methoxy)-8-fluoroquinazolin-7-yl)naphthalen-2-ol]

IC50 [1]: 131 nM
IC50 [2, 4]: 6260 nM
IC50 ([3]; read-out: IC50 (nM) (cRaf)): 7240 nM
Compound: CN(C)C[C@]1(COc2nc(N3CC4CCC(C3)N4)c3cc(Cl)c(-c4cc(O)cc5ccccc45)c(F)c3n2)CC1(F)F (atropisomer, axis not shown) [Example 11b, 4-(4-(3.8-diazabicyclo[3.2.1]octan-3-yl)-6-chloro-2-(((S)-1-((dimethylamino)methyl)-2,2-difluorocyclopropyl)methoxy)-8-fluoroquinazolin-7-yl)naphthalen-2-ol]

Compound: CN(C)C[C@@]1(COc2nc(N3C[C@H]4CC[C@@](C)(C3)N4)c3cc(Cl)c(-c4c(F)cc(F)c5ccc(N)nc45)c(F)c3n2)CC1(F)F (single isomer, unassigned) [92b]
IC50 [1]: 236 nM
IC50 [2, 4]: 5320 nM
IC50 ([3]; IC50 (nM) (cRaf)): 9210 nM

Compound: C#Cc1cccc2cc(O)cc(-c3c(F)cc4c(N5C[C@H]6CC[C@@](C)(C5)N6)nc(OCC5(CN6CC[C@@H](F)C6)CC5)nc4c3F)c12 (single isomer, unassigned) [103a]
IC50 [1]: 1.05 nM
IC50 [2, 4]: 3.76 nM
IC50 ([3]; IC50 (nM) (cRaf)): 26.2 nM

Compound: Cc1c(Cl)cc2[nH]nc(C)c2c1-c1c(F)cc2c(N3C[C@H]4CC[C@@](C)(C3)N4)nc(OCC3(CN(C)C)CC3(F)F)nc2c1F (single isomer, unassigned) [Ex 68]
IC50 [1]: 39.9 nM
IC50 [2, 5]: 2380 nM
IC50 ([3]; IC50 (nM) (cRaf)): 3300 nM

Compound: Cc1cc2[nH]ncc2c(-c2c(F)cc3c(N4C[C@H]5CC[C@@](C)(C4)N5)nc(OC[C@]4(CN(C)C)CC4(F)F)nc3c2F)c1C(F)(F)F (single isomer, unassigned) [Ex 76a]
IC50 [1]: 12 nM
IC50 [2, 4]: 593 nM
IC50 ([3]; IC50 (nM) (cRaf)): 1810 nM

Compound: COCC12CCC(CN(c3nc(OCC4(CN(C)C)CC4)nc4c(F)c(-c5cc(O)cc6ccccc56)c(Cl)cc34)C1)N2 (centres unmarked) [Example 37, 4-(6-chloro-2-((1-((dimethylamino)meth-yl)cyclopro-pyl)methoxy)-8-fluoro-4-(1-(methoxy-methyl)-3,8-diazabicyclo[3.2.1]oc-tan-3-yl)quinazolin-7-yl)naphthalen-2-ol]
IC50 [1]: 571 nM
IC50 [2, 5]: 16700 nM

IC50 [1]: 689 nM
IC50 [2, 5]: 22000 nM
Compound: CC[C@@H]1N[C@H]2CC[C@@H]1N(c1nc(OCC3(CN(C)C)CC3)nc3c(F)c(-c4cc(O)cc5ccccc45)c(Cl)cc13)C2 [Example 40, 4-(6-chloro-2-((1-((dimethylamino)methyl)cyclopropyl)methoxy)-4-((1S,4S,6S)-6-ethyl-2,5-diazabicyclo[2.2.2]octan-2-yl)-8-fluoroquinazolin-7-yl)naphthalen-2-ol]

Compound: CN(C)CC1(COc2nc(N3C[C@H]4N[C@@](C)(C[C@@H]4O)C3)c3cc(Cl)c(-c4cc(O)cc5ccccc45)c(F)c3n2)CC1 [Example 44, (1S,5R,6S)-3-(6-chloro-2-((1-((dimethylamino)methyl)cyclopropyl)methoxy)-8-fluoro-7-(3-hydroxynaphthalen-1-yl)quinazolin-4-yl)-1-methyl-3,8-diazabicyclo [3.2.1]octan-6-ol]
IC50 [1]: 1160 nM
IC50 [2, 5]: 13900 nM

Compound: CN(C)CC1(COc2nc(N3CC4CCC(C3)N4)c3cc(Cl)c(-c4c5ccccc5cc5[nH]c(=O)[nH]c45)c(F)c3n2)CC1 [Example 46, 4-(4-(3,8-diazabicyclo[3.2.1]octan-3-yl)-6-chloro-2-((1-((dimethylamino)methyl)cyclopropyl)methoxy)-8-fluoroquinazolin-7-yl)-1,3-dihydro-2H-naphtho[2,3-d]imidazol-2-one]
IC50 [1]: 9340 nM
IC50 [2, 5]: 50800 nM

Compound: CN(C)CC1(COc2nc(N3CC4CCC(C3)N4)c3cc(Cl)c(-c4cc(O)ccc4C45CC(C4)C5)c(F)c3n2)CC1 [Example 47, 3-(4-(3,8-diazabicyclo[3.2.1]octan-3-yl)-6-chloro-2-((1-((dimethylamino)methyl)cyclopropyl)methoxy)-8-fluoroquinazolin-7-yl)-4-(bicyclo[1.1.1]pentan-1-yl)phenol]
IC50 [1]: 551 nM
IC50 [2, 5]: 5790 nM

Compound: Oc1ccc(SC(F)(F)F)c(-c2c(F)cc3c(N4CC5CCC(C4)N5)nc(OCC4(CN5CCOCC5)CC4)nc3c2F)c1 [Example 48, 3-(4-(3,8-diazabicyclo[3.2.1]octan-3-yl)-6,8-difluoro-2-((1-(morpholinomethyl)cyclopropyl)methoxy)quinazolin-7-yl)-4-((trifluoromethyl)thio)phenol]
IC50 [1]: 529 nM
IC50 [2, 5]: 6120 nM

Compound: Fc1cc2c(N3CC4CCC(C3)N4)nc(OCC3(CN4CCOCC4)CC3)nc2c(F)c1-c1cccc2sncc12 [Example 50, 4-((1-(((7-(benzo[d]isothiazol-4-yl)-4-(3,8-diazabicyclo[3.2.1]octan-3-yl)-6,8-difluoroquinazolin-2-yl)oxy)methyl)cyclopropyl)methyl) morpholine]
IC50 [1]: 5180 nM
IC50 [2, 5]: 20300 nM

Compound: CNc1nc2c(-c3c(Cl)cc4c(N5CC6CCC(C5)N6)nc(OCC5(CN6CCOCC6)CC5)nc4c3F)ccc(F)c2s1 [Example 51, 4-(4-(3,8-diazabicyclo[3.2.1]octan-3-yl)-6-chloro-8-fluoro-2-((1-(morpholinomethyl)cyclopropyl)methoxy)quinazolin-7-yl)-7-fluoro-N-methylbenzo[d]thiazol-2-amine]
IC50 [1]: 3930 nM
IC50 [2, 5]: 11200 nM

Compound: Fc1c(-c2ccc(F)c3scnc23)c(Cl)cc2c(N3CC4CCC(C3)N4)nc(OCC3(CN4CCOCC4)CC3)nc12 [Example 53, 4-((1-(((4-(3,8-diazabicyclo[3.2.1]octan-3-yl)-6-chloro-8-fluoro-7-(7-fluorobenzo[d]thiazol-4-yl)quinazolin-2-yl)oxy)methyl)cyclopropyl)methyl) morpholine]
IC50 [1]: 2780 nM
IC50 [2, 5]: 11000 nM

Compound: Nc1nc2c(F)ccc(-c3c(Cl)cc4c(N5CC6CCC(C5)N6)nc(OCC5(CN6CCOCC6)CC5)nc4c3F)c2s1 [Example 54, 7-(4-(3,8-diazabicyclo[3.2.1]octan-3-yl)-6-chloro-8-fluoro-2-((1-(morpholinomethyl)cyclopropyl)methoxy)quinazolin-7-yl)-4-fluorobenzo[d]thiazol-2-amine]
IC50 [1]: 2650 nM
IC50 [2, 5]: 14100 nM

Compound: CN(C)CC1(COc2nc(N3CC4CCC(C3)N4)c3cc(Cl)c(-c4c(Cl)c(F)cc5[nH]ncc45)c(F)c3n2)CC1 [Example 55, 1-(1-(((4-(3,8-diazabicyclo[3.2.1]octan-3-yl)-6-chloro-7-(5-chloro-6-fluoro-1H-indazol-4-yl)-8-fluoroquinazolin-2-yl)oxy)methyl)cyclopropyl)-N,N-dimethylmethanamine]
IC50 [1]: 969 nM
IC50 [2, 5]: 7060 nM

Compound: CN(C)CC1(COc2nc(N3CC4CCC(C3)N4)c3cc(Cl)c(-c4cc(C(F)(F)F)cc5[nH]ncc45)c(F)c3n2)CC1 [Example 56, 1-(1-(((4-(3,8-diazabicyclo[3.2.1]octan-3-yl)-6-chloro-8-fluoro-7-(6-(trifluoromethyl)-1H-indazol-4-yl)quinazolin-2-yl)oxy)methyl)cyclopropyl)-N,N-dimethylmethanamine]
IC50 [1]: 4030 nM
IC50 [2, 5]: 6920 nM

Compound: Nc1nc2c(-c3c(Cl)cc4c(N5CC6CCC(C5)N6)nc(OCC5(CN6CCOCC6)CC5)nc4c3F)cccc2o1 [Example 59, 4-(4-(3,8-diazabicyclo[3.2.1]octan-3-yl)-6-chloro-8-fluoro-2-((1-(morpholinomethyl)cyclopropyl)methoxy)quinazolin-7-yl)benzo[d]oxazol-2-amine]
IC50 [1]: 20.1 nM
IC50 [2, 5]: 2210 nM

Compound: CN(C)CC1(COc2nc(N3C[C@H]4CC[C@@H](C3)N4)c3cc(Cl)c(-c4cccc5cccc(C#N)c45)c(F)c3n2)CC1 [Example 60, 8-(4-((1R,5S)-3,8-diazabicyclo[3.2.1]octan-3-yl)-6-chloro-2-((1-((dimethylamino)methyl)cyclopropyl)methoxy)-8-fluoroquinazolin-7-yl)-1-naphthonitrile]
IC50 [1]: 1590 nM
IC50 ([2]; Homo sapiens, ASPC1, 2 h): 8760 nM

Compound: CN(C)CC1(COc2nc(N3C[C@H]4CC[C@@H](C3)N4)c3cc(Cl)c(-c4c(C(F)(F)F)ccc5[nH]ncc45)c(F)c3n2)CC1 [Example 63, 1-(1-(((4-((1R,5S)-3,8-diazabicyclo [3.2.1]octan-3-yl)-6-chloro-8-fluoro-7-(5-(trifluoromethyl)-1H-indazol-4-yl)quinazolin-2-yl)oxy)methyl)cyclopropyl)-N,N-dimethylmethanamine]
IC50 [1]: 1590 nM
IC50 [2, 5]: 26800 nM

Compound: Cc1cc2[nH]ncc2c(-c2c(F)cc3c(N4C[C@H]5CC[C@@H](C4)N5)nc(OCC4(CN(C)C)CC4(F)F)nc3c2F)c1Cl (stereo partly drawn) [Example 64, 1-(1-(((4-((1R,5S)-3,8-diazabicyclo[3.2.1]octan-3-yl)-7-(5-chloro-6-methyl-1H-indazol-4-yl)-6,8-difluoroquinazolin-2-yl)oxy)methyl)-2,2-difluorocyclopropyl)-N,N-dimethylmethanamine]
IC50 [1]: 146 nM
IC50 [2, 5]: 4380 nM
